The values below come from US4347176A, “Compounds and methods of making same” (Burroughs Wellcome Co., priority 1980, dated 1982).

The structures appear in SMILES notation.

Experiment [1] deals with antisera raised by presenting a suitable bupropion variant-carrier material conjugate to the immune system of host animals. Nature of the experiment: competition of bupropion with radiolabeled competitor for binding to antisera. Details: species or system rabbit. How it is done: (§1) Samples of six standard solutions of bupropion in blank plasma having concentrations of 0.39 to 50 ng/ml) are pipetted (0.1 ml each) in duplicate into 12×75 mm plastic tubes. Duplicate non-specific binding (no antibody) and maximum binding tubes (no unlabeled bupropion) receive 0.1 ml blank plasma. Spiked plasma controls at several concentrations of (e.g., 1.0, 10.0, and 100 ng/ml) and plasma samples for assay (diluted into the standard range with blank plasma if necessary) are assayed in duplicate. After being placed in an ice bath, all tubes receive (in order) 0.2 ml ^3 H bupropion (416 pg. containing approximately 10^4 cpm) and 0.7 ml anti-bupropion serum (raised to a ring-functionalized immunogen according to the present invention) (at pre-determined dilutions such that approximately 40% of the ^3 H bupropion added is bound), both in assay buffer (0.05 M phosphate-bufferedisotonic saline, containing 0.01 M EDTA and 0.1% gelatin, pH 7.0). […] The supernatants, containing antibody-bound ^3 H bupropion are carefully decanted into liquid scintillation cocktail for quantitation of ^3 H. After counts (minus average nonspecific binding cpm) are expressed as percentages of average maximum binding cpm, bupropion concentrations in plasma samples and spiked controls are read from a standard curve (log concentration vs percent average maximum binding).

For another experiment, the system named is anti-compound 1 sera. Nature of the experiment: RIA of bupropion using 125I-labeled competitor with anti-compound 1 sera: sensitivity. The class given is binding, rabbit (preferred host animal). The conditions noted are these: in conjunction with anti-compound 1 sera; compared with the other iodinated competitors, FIG. 2. How it is done: as §1, with “binding). […]” for “binding).”

The test system of experiment [2] is anti-compound 2 sera, and anti-compound 3 sera. Put plainly: RIA of bupropion using 125I-labeled competitors with anti-compound 2 sera and anti-compound 3 sera: sensitivity. The class given is binding, rabbit (preferred host animal). As to conditions: with either anti-compound 2 or anti-compound 3 sera; standard curves, FIG. 2. Here is the method: as §1, with “7.0). Non-specific binding tubes receive 0.7 ml assay buffer.) Following incubation either at 25° C. for 2 hours or overnight at 4° C., bound and free ^3 H bupropion are separated by incubation for 10 min at 0° C. with 0.5 ml ice-cold dextran-coated charcoal solution (0.25% dextran, 5 mg/ml charcoal, in assay buffer) followed by centrifugation for 10 minutes at 4° C.” for “7.0).”
RIA's have been run according to the method of Example X utilizing ^125 I labeled bupropion competitors of the present invention in conjunction with antisera obtained following immunization with immunogens of the present invention. […] Following the ethanol precipitation of antibody-bound ^125 I-bupropion competitor at equilibrium, ^125 I in the protein pellets was quantified.

On to `CC(NC(C)(C)C)C(=O)c1cccc(Cl)c1` (racemic) [bupropion, (±)-2-tert-butylamino-3'-chloropropiophenone], for which the “competition with radiolabeled bupropion or competitor for binding to antisera” value in experiment [1] is on record as “successfully compete”. With `CC(NC(C)(C)C)C(=NOCC(=O)NCCc1ccc(O)c([125I])c1)c1cccc(Cl)c1` (stereo not drawn) [Compound 6, α-t-Butylamino-3-chloropropiophenone-carboxymethyloxime-^125 I-tyramine amide], the RIA sensitivity result in the experiment on anti-compound 1 sera is given as “least sensitive RIA”. As for `CC(NC(C)(C)C)C(=O)c1ccc(OCC(=O)NCCc2ccc(O)c([125I])c2)c(Cl)c1` (stereo not drawn) [Compound 7, α-t-Butylamino-3-chloro-4-carbomethoxypropiophenone-^125 I-tyramine amide], the “RIA sensitivity relative to the compound 10 (3H bupropion) assay system” value in experiment [2] is on record as “sensitivity approximately equal”. Still for that read-out and setting: for `CC(NC(C)(C)C)C(=O)c1ccc(CCCOC(=O)CCC(=O)NCCc2ccc(O)c([125I])c2)c(Cl)c1` (stereo not drawn) [Compound 8, α-t-butylamino-3-chloro-4-γ-hydroxypropylpropiophenonehemisuccinate-^125 I-tyramine amide] the value was “sensitivity approximately equal”. `CC(NC(C)(C)C)C(=O)c1ccc(O)c([125I])c1` (stereo not drawn) [Compound 9, ^125 I-α-t-Butylamino-3-iodo-4-hydroxypropiophenone]: in experiment [2], the “RIA sensitivity relative to the compound 10 (3H bupropion) assay system” value was “approximately ten times more sensitive”.
